Source: patent publication US20190002436A1, “RESPIRATORY SYNCYTIAL VIRUS INHIBITORS” (MEDIVIR AB, priority 2015, published 2019)

The compounds below were run on RSV (Long) (assay: RSV cytopathic effect (CPE)-based viral replication assay). Settings: HEp-2 cells infected with RSV Long at MOI 0.015; 3 days at 37° C.; cell viability by CellTiter-Glo luminescence; read-out: EC50 (nm).
Format: cell-based, respiratory syncytial virus (RSV)
Experimental: Example A: RSV Cytopathic Effect
Compounds of the invention are initially tested in a cytopathic effect (CPE)-based viral replication assay using immortalized cells and a laboratory strain of RSV (Long). This assay evaluates the ability of a compound to inhibit viral replication.
Assay plates are prepared by seeding 2,500 HEp-2 cells (ATCC) per well of a 384-well black clear-bottom plate (Greiner Bio-One) in 20 μL of assay media (defined as DMEM supplemented with 2% heat-inactivated fetal bovine serum and 1% Penicillin/Streptomycin). Assay plates are incubated overnight at 37° C. in an incubator containing 5% CO2. The following day, a 10-point serial dilution of test compound is prepared in DMSO. Compounds are subsequently diluted with assay media and 20 μL of diluted compound (containing 1.5% DMSO) is transferred to an assay plate for evaluation of antiviral activity.
For the CPE assay, cells are infected at a Multiplicity of Infection (MOI) of 0.015 using 20 μL of RSV Long (ATCC) diluted in assay media. The DMSO concentration is constant throughout the assay plate, including the negative and positive controls. The assay plate is incubated for 3 days at 37° C. in an incubator containing 5% CO2. Cell viability is evaluated with the addition of 10 μL of CellTiter-Glo (ProMega). Luminescence is measured using an EnVision plate reader (Perkin Elmer). EC50 values are calculated using the raw data from the CPE assays.
Work on `CS(=O)(=O)N1CCC2(CC1)C(=O)N(Cc1ncc3ccccc3c1CCCCO)c1cnccc12` [Example 37c, 1′-((4-(4-Hvdroxybutyl)isoquinolin-3-yl)methyl)-1-(methylsulfonyl)spiro[piperidine-4,3′-pyrrolo[2,3-c]pyridin]-2′(1′H)-one] yielded an EC50 of 7.2 nM.

Same assay, conditions: human respiratory syncytial virus, HEp-2, 72 h, HEp-2 cells infected with RSV Long at MOI 0.015; 3 days at 37° C.; cell viability by CellTiter-Glo luminescence; read-out: EC50 (nm)
With `COC(=O)N1CCC(n2c(=O)n(Cc3ncc4ccccc4c3CCCCO)c3cnccc32)CC1` [Example 2d, Methyl 4-(3-((4-(4-hydroxybutyl)isoquinolin-3-yl)methyl)-2-oxo-2,3-dihydro-1H-imidazo[4,5-c]pyridin-1-yl)piperidine-1-carboxylate] the EC50 was 2 nM.
With `COC(=O)N1CC2(C1)C(=O)N(Cc1ncc3ccccc3c1-c1cccnc1)c1ccccc12` [Example 92b, Methyl 2′-oxo-1′-((4-(pyridin-3-yl)isoquinolin-3-yl)methyl)spiro[azetidine-3,3′-indoline]-1-carboxylate] the EC50 was 0.67 nM.
Work on `O=C(N1CCOCC1)N1CC2(C1)C(=O)N(Cc1ncc3ccccc3c1-c1cccnc1)c1ccccc12` [Example 148b, 1-(morpholine-4-carbonyl)-1′-((4-(pyridin-3-yl)isoquinolin-3-yl)methyl)spiro[azetidine-3,3′-indolin]-2′-one] yielded an EC50 of 7.2 nM.
`COC(=O)N1CCC(n2c(=O)n(Cc3ncc4cccc(F)c4c3CCCCO)c3cnccc32)CC1` [Example 30, Methyl 4-(3-((5-fluoro-4-(4-hydroxybutyl)isoquinolin-3-yl)methyl)-2-oxo-2,3-dihydro-1H-imidazo[4,5-c]pyridin-1-yl)piperidine-1-carboxylate] gave an EC50 of 18 nM.
With `N#Cc1ccc(-c2c(CN3c4ccccc4[C@]4(C[C@H](O)C4)C3=O)ncc3ccccc23)cn1` [Example 82] the EC50 was 11 nM.
`CS(=O)(=O)N1CCC2(CC1)C(=O)N(Cc1ncc3ccccc3c1-c1ccc(F)nc1)c1cnccc12` [Example 110b, 1′-((4-(6-fluoropyridin-3-yl)isoquinolin-3-yl)methyl)-1-(methylsulfonyl)spiro[piperidine-4,3′-pyrrolo[2,3-c]pyridin]-2′(1′H)-one] was tested, and the EC50 was 0.86 nM.
`NC(=O)c1ccc(-c2c(CN3C(=O)C4(CCN(C(=O)C(N)C(F)(F)F)CC4)c4ccncc43)ncc3ccccc23)cn1` (stereo not drawn) [Example 2007] gave an EC50 of 4 nM.
`O=C(OC1CC1)N1CCC(n2c(=O)n(Cc3ncc4ccccc4c3CCCCO)c3cnccc32)CC1` [Example 35, cyclopropyl 4-(3-((4-(4-hydroxybutyl)isoquinolin-3-yl)methyl)-2-oxo-2,3-dihydro-1H-imidazo[4,5-c]pyridin-1-yl)piperidine-1-carboxylate] gave an EC50 of 2.4 nM.
Work on `CS(=O)(=O)N1CCC2(CC1)C(=O)N(Cc1ncc3ccccc3c1-c1cn[nH]c1)c1cnccc12` [Example 2029] yielded an EC50 of 2.6 nM.
`CC(=O)N1CCC2(CC1)C(=O)N(Cc1ncc3ccccc3c1-c1cccnc1)c1cnccc12` [Example 146b, 1-Acetyl-1′-((4-(pyridin-3-yl)isoquinolin-3-yl)methyl)spiro[piperidine-4,3′-pyrrolo[2,3-c]pyridin]-2′(1′H)-one] gave an EC50 of 2.8 nM.
In the case of `O=c1n(Cc2ncc3ccccc3c2-c2ccc(O)nc2)c2ccccc2n1C1CC1` [Example 88, 1-Cyclopropyl-3-((4-(6-hydroxypyridin-3-yl)isoquinolin-3-yl)methyl)-1H-benzo[d]imidazol-2(3H)-one], the EC50 is reported as 8.5 nM.
`COC(=O)N1CC2(C1)C(=O)N(Cc1ncc3ccccc3c1-c1cncs1)c1ccccc12` [Example 100, Methyl 2′-oxo-1′-((4-(thiazol-5-yl)isoquinolin-3-yl)methyl)spiro[azetidine-3,3′-indoline]-1-carboxylate] showed an EC50 of 0.4 nM.
Compound `NC(=O)c1ccc(-c2c(CN3C(=O)C4(CCN(C(=O)[C@@H]5CC(F)(F)CN5)CC4)c4ccncc43)ncc3ccccc23)cn1` [Example 2011] has an EC50 of 21 nM.
`COC(=O)N1CC2(CC(n3c(=O)n(Cc4ncc5ccccc5c4CCCCO)c4ccccc43)C2)C1` [Example 17, Methyl 6-(3-((4-(4-hydroxybutyl)isoquinolin-3-yl)methyl)-2-oxo-2,3-dihydro-1H-benzo[d]imidazol-1-yl)-2-azaspiro[3.3]heptane-2-carboxylate] showed an EC50 of 58 nM.
